Measured values: patent US12110281B2, “Catechol derivatives or salt thereof, processes for preparing the same, and pharmaceutical compositions comprising the same” (HEXAPHARMATEC CO., LTD., priority 2018, dated 2024)
Where a name gives a salt, the structure may show the parent alone.

Assays:
[1] = system: dimethylnitrosamine (DMN)-induced liver injury male SD rats; assay: Liver function-improving activities by oral administration in the liver injury model (1), 3 weeks; assay type: in vivo, rat; settings: serum, 25 mg/kg oral once a day
From the text: The compounds according to the present invention were orally administered to dimethylnitrosamine (DMN)-induced liver injury male SD rats for 3 weeks, so as to evaluate liver function-improving activities. Specifically, 7-week-old male SD rats (Orient Bio, Korea) were accommodated to the laboratory environment at room temperature for 7 days. General symptoms were observed and then only healthy animals were used for the experiment. The rats were divided into 9 groups (n=5 for each group), the normal control group, the group to which only DMN is administered, and the groups to which both the compound of the present invention (the compounds of Example 2, 5, 6, 9, 10, 20 or 21) and DMN are administered. DMN was dissolved in purified water and then administered intraperitoneally at the dose of 10 mg/kg for 3 consecutive weeks (3 times per week, for 4 weeks). Blood samples were collected on Day 3 after the completion of the first-week liver injury inducement and then the ALT (Alanine Transaminase) values and the AST (Aspartate Transaminase) values were measured so as to confirm the liver injury thereof. The compounds of the present invention were administered for 3 weeks, i.e., from Day 4 after the completion of the first-week liver injury inducement to the DMN-administering period. The seven compounds of the present invention were dissolved in purified water or corn oil and then orally administered, using an oral sonde, at the dose of 25 mg/kg once a day for 3 weeks. Blood samples were collected on Day 0 (3 days after the completion of the first-week liver injury inducement) and Day 7, 14 and 21 after the administration of the test compounds. The collected blood was injected into a vacutainer tube containing a clot activator and then allowed to stand at room temperature for about 20 minutes so as to coagulate each blood sample. After centrifugation for 10 minutes, the resulting serums were subjected to blood-biochemical tests.

[2] = system: Hela cells; assay: Autophagy-inducing activities in Hela cells (Autophagy Detection Kit); assay type: cell-based
Procedure: The autophagy-inducing activities of the compounds of the present invention were measured in Hela cells (Korean Cell Line Bank), using the Autophagy Detection Kit (ab139484, Abcam), according to the manufacturer's instructions. Specifically, 100 μL of EBSS (Earle's Balanced Salt Solution, WELGENE (LB 002-03)) containing 10% fetal bovine serum (FBS) was added to each well of a 96-well plate. Hela cells (1×10^4 cells) were added to each well and then incubated overnight at 37° C. in a CO2 incubator so as to stabilize the cells. The medium of each well containing the stabilized cells was replaced with a medium obtained by adding 10 nM or 100 nM of the compounds prepared in Examples (test compounds) to a EBSS containing 10% FBS. As a positive control, rapamycin was dissolved in dimethyl sulfoxide and then treated at a concentration of 500 nM per well. After the treatments, the cells were incubated at 37° C. in a CO2 incubator for 4 hours or 24 hours and then washed twice with the 1× assay buffer (prepared by adding 9 mL of distilled water to the 10× assay buffer). EBSS containing 5% fetal bovine serum, 1 μL/ml of Green detection reagent and 1 μL/ml of Nuclear stain was added thereto in the amount of 100 μL per well. The cells were incubated for 1 hour at 37° C. in a CO2 incubator and then washed twice with the 1× assay buffer. The absorbance values were measured at 488 nm, using a microplate reader (Cytation 3). The tests were repeated four times.
The absorbance values, which were obtained by treating Hela cells with the test compounds (100 nM) and the positive control (rapamycin, 500 nM) and then incubating for 4 hours as described in above, are shown in Table 1 below. And also, the absorbance values, which were obtained by treating Hela cells with the test compounds (10 nM or 100 nM) and the positive control (rapamycin, 500 nM) and then incubating for 24 hours as described in above, are shown in Table 2 below.

[3] = 0 week (Day 0, before administration of test compound)
[4] = test compound 10 nM, incubation for 24 hours
[5] = test compound 100 nM, incubation for 4 hours
[6] = test compound 100 nM, incubation for 24 hours

Compound	ALT values (average value) [1, 3] [U/L]	AST values (average value) [1, 3] [U/L]	ALT values (average value) ([1]; 1 week) [U/L]	AST values (average value) ([1]; 1 week) [U/L]	ALT values (average value) ([1]; 2 weeks) [U/L]	AST values (average value) ([1]; 2 weeks) [U/L]	ALT values (average value) ([1]; 3 weeks) [U/L]	AST values (average value) ([1]; 3 weeks) [U/L]	Absorbance (at 488 nm) [2, 4]	Absorbance (at 488 nm) [2, 5]	Absorbance (at 488 nm) [2, 6]	Absorbance (at 488 nm) ([2]; positive control 500 nM, incubation for 4 hours)	Absorbance (at 488 nm) ([2]; positive control 500 nM, incubation for 24 hours)
CCN(CC)CCOc1ccc(-c2ccc(C(=O)N3CCN(C)CC3)s2)cc1OC.Cl.Cl [Example 2, N-(4-methylpiperazino)-5-(4-(2-diethylamino)ethoxy-3-methoxyphenyl)thiophene-2-carboxamide hydrochloride]	67.24	143.32	101.70	210.86	113.22	223.88	126.10	250.76	1829.3	1460.5	1866.3	–	–
CCN(CC)CCOc1ccc(-c2ccc(C(=O)NC(C)C)s2)cc1OC.Cl [Example 9, N-isopropyl-5-(4-(2-diethylamino)ethoxy-3-methoxyphenyl)thiophene-2-carboxamide hydrochloride]	67.64	140.64	103.78	220.58	111.80	241.06	117.92	222.50	1594.0	1320.2	1951.7	–	–
COc1cc(-c2ccc(C(=O)NCCN(C(C)C)C(C)C)s2)ccc1O.Cl [Example 5, N-(2-(diisopropylamino)ethyl)-5-(4-hydroxy-3-methoxyphenyl)thiophene-2-carboxamide hydrochloride]	68.90	137.66	96.60	187.26	108.80	219.66	111.00	234.22	1557.3	1348.0	1618.3	–	–
COc1cc(-c2ccc(C(=S)NCCN(C(C)C)C(C)C)s2)ccc1O.Cl [Example 7, N-(2-(diisopropylamino)ethyl)-5-(4-hydroxy-3-methoxyphenyl)thiophene-2-thiocarboxamide hydrochloride]	–	–	–	–	–	–	–	–	1598.5	1325.5	1605.5	–	–
COc1cc(-c2ccc(C(=O)NCC3(N(C)C)CCOCC3)s2)ccc1O.Cl [Example 20, N-((4-(dimethylamino)tetrahydro-2H-pyran-4-yl)methyl)-5-(4-hydroxy-3-methoxyphenyl)thiophene-2-carboxamide hydrochloride]	69.80	136.28	87.26	194.88	104.34	209.56	116.14	229.74	–	–	–	–	–
COc1cc(-c2ccc(C(=S)NC(C)C)s2)ccc1O [Example 11, N-isopropyl-5-(4-hydroxy-3-methoxyphenyl)thiophene-2-thiocarboxamide]	–	–	–	–	–	–	–	–	1459.7	1268.4	1731.0	–	–
CCN(CC)CCOc1ccc(-c2ccc(C(=S)N3CCN(C)CC3)s2)cc1OC.Cl.Cl [Example 4, N-(4-methylpiperazino)-5-(4-(2-diethylamino)ethoxy-3-methoxyphenyl)thiophene-2-thiocarboxamide hydrochloride]	–	–	–	–	–	–	–	–	1691.3	1580.6	1618.3	–	–
CCN(CC)CCOc1ccc(-c2ccc(C(=S)NCCN(C(C)C)C(C)C)s2)cc1OC.Cl.Cl [Example 8, N-(2-(diisopropylamino)ethyl)-5-(4-(2-diethylamino)ethoxy-3-methoxyphenyl)thiophene-2-thiocarboxamide hydrochloride]	–	–	–	–	–	–	–	–	1586.3	1315.2	1612.3	–	–
CCN(CC)CCOc1ccc(-c2ccc(C(=S)NC(C)C)s2)cc1OC.Cl [Example 10, N-isopropyl-5-(4-(2-diethylamino)ethoxy-3-methoxyphenyl)thiophene-2-thiocarboxamide hydrochloride]	67.46	145.00	85.06	202.52	102.94	218.60	102.94	199.34	1729.3	1390.0	1882.3	–	–
COc1cc(-c2ccc(C(=S)N3CCN(C)CC3)s2)ccc1O [Example 3, N-(4-methylpiperazino)-5-(4-hydroxy-3-methoxyphenyl)thiophene-2-thiocarboxamide hydrochloride]	–	–	–	–	–	–	–	–	1576.3	1193.8	1754.3	–	–
COc1cc(-c2ccc(C(=O)N3CCN(C)CC3)s2)ccc1O [Example 1, hydrochloride]	–	–	–	–	–	–	–	–	1617.3	1321.2	1660.3	–	–
CO[C@H]1C[C@@H]2CC[C@@H](C)[C@@](O)(O2)C(=O)C(=O)N2CCCC[C@H]2C(=O)O[C@H]([C@H](C)C[C@@H]2CC[C@@H](O)[C@H](OC)C2)CC(=O)[C@H](C)/C=C(\C)[C@@H](O)[C@@H](OC)C(=O)[C@H](C)C[C@H](C)/C=C/C=C/C=C/1C [Rapamycin, rapamycin, reference compound]	–	–	–	–	–	–	–	–	–	–	–	1306.2	1594.2
CCN(CC)CCOc1ccc(-c2ccc(C(=O)NCCN(C(C)C)C(C)C)s2)cc1OC.Cl.Cl [Example 6, N-(2-(diisopropylamino)ethyl)-5-(4-(2-diethylamino)ethoxy-3-methoxyphenyl)thiophene-2-carboxamide hydrochloride]	68.02	141.78	80.46	220.86	98.94	215.42	109.80	249.56	1784.6	1670.5	1893.7	–	–
